The text below walks through data of ChEMBL document CHEMBL1201862, “PubChem BioAssay data set” (2004).

Common to all, as to experiment: NCI tumour cell line growth inhibition, 48 h
In assay [1] the test system is DMS-114.
In assay [2] the test system is XF498.
Assay [3] deals with M19-MEL.
The test system of assay [4] is KM-20L2.
Assay [5] concerns PC-3.
Assay [6] deals with LXFL 529.
Assay [7] deals with SNB-78.
The subject of assay [8] is Hs-578T.
Assay [9] concerns RXF 631.

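Dose response: 5 concentrations. Exposure: 48 h. Format: 96-well plates. Endpoint: linear interpolation; highest concentration if not reached. At the GI50, growth is halved.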 The source made the active and inactive calls. Rule as the data show it: active = GI50 up to about 1.1 µM and inactive = higher. Some results are limits rather than exact numbers.

Regarding `O=S(=O)(CCBr)CCBr`, the GI50 is 2.18 µM (inactive) in assay [1], < 0.01 µM (active) in [2], 2.83 µM (inactive) in [3] and 11.1 µM (inactive) in [4].
Consider `CCOC(=O)c1csc(NC(=O)C(C)N2CCOCC2)n1` (configuration not stated), for which, in [5], the GI50 is > 100 µM (inactive).
With `N#CCCN(CCC#N)c1ccc(/C=C2\N=C(c3cc([N+](=O)[O-])ccc3Cl)N(S(=O)(=O)c3ccccc3)C2=O)cc1`, the GI50 in assay [6], in assay [1], in [2], in assay [3], in assay [7] and in [4] was > 100 µM (inactive) in each case.
On to `CSc1ncc2c(n1)-c1ccccc1OC2NC1CC1` (configuration not stated), for which the GI50 is 50.7 µM (inactive) in assay [5] and 38.1 µM (inactive) in [8].
Consider `COc1ccc(CNc2nc3cc(C(F)(F)F)ccc3nc2C(=O)O)cc1OC`, for which the GI50 in [5] is 27.5 µM (inactive).
For `CC(=O)N1C(=O)/C(=C\C(=O)c2ccc(Cl)cc2)c2ccccc21`, the GI50 was 11.4 µM (inactive) in assay [5] and 19.5 µM (inactive) in [8].
In the case of `CC(=O)O[C@H]1CC[C@@]2(C)C(=CC[C@H]3[C@@H]4C[C@H](N5CCN(C)CC5)[C@H](OC(C)=O)[C@@]4(C)CC[C@@H]32)C1`, the GI50 in assay [5] was 16.8 µM (inactive); in [8], 26.2 µM (inactive).
For `Cc1cc(C)c2c(c1)CC1(Cc3c(C)ccc(C)c3C1=O)C2=O` (configuration not stated) the same measures were > 100 µM (inactive) and > 100 µM (inactive).
On to `C1=CC=C2NCCCCCCC/N=C3/C=CC=CC=C3NCCCCCCC/N=C\2C=C1`, for which the GI50 in [6] was > 100 µM (inactive); in assay [2], > 100 µM (inactive); in [3] it was > 100 µM (inactive); in [4], 30.5 µM (inactive); in assay [9], 13 µM (inactive).
For `CN(C)CCCNC(=O)c1c(-c2cccnc2)cnc2ccccc12`, the GI50 in assay [5] is > 100 µM (inactive).
The same measure, in the same setting: the figure for `CC(C)(CO)NC(=O)c1cccc(C(=O)NC(C)(C)CO)c1Br` is > 100 µM (inactive).
For the compound `CC(=O)C(=O)NC1/C=C(C)\C=C/C(O)C/C=C(C)\C=C/C(O)CC2OC(=O)C1(C)C(=O)C2C` (configuration not stated), the GI50 in assay [1], in [3], in [7] and in [4] was > 100 µM (inactive) in each case.
Regarding `CCN(CC)CCCOC(=O)/C=C/c1c(C)[nH]c(=O)[nH]c1=O`, the GI50 is > 625 µM (inactive) in [1]; > 625 µM (inactive) in assay [2]; > 625 µM (inactive) in [3]; 542 µM (inactive) in [7]; > 625 µM (inactive) in assay [4].
With `CSc1nc(NC2OC(CO)C(O)C(O)C2O)c(N)c(=O)n1C` (configuration not stated), the GI50 in assay [1], in [2], in assay [3], in assay [7] and in [4] was > 100 µM (inactive) throughout.
`COC(C/C(=C/CO[Si](C(C)C)(C(C)C)C(C)C)C(=O)N(C(=O)OC(C)(C)C)c1ccccc1I)OC`: the GI50 in assay [5] is 23.6 µM (inactive); in assay [8], 83.4 µM (inactive).
Take `CC(C)c1ccccc1SC1CC(=O)CC(Sc2ccccc2C(C)C)C12O[C@H](c1ccccc1)[C@@H](c1ccccc1)O2` (some centres not stated): the GI50 in [5] is 58.9 µM (inactive).
As to `CCC1CN2CCc3cc(OC)c(OC)cc3C2CC1CC1c2cc(OC)c(OC)cc2CCN1C(=O)C(N)Cc1ccccc1.[O-][Cl+3]([O-])([O-])O` (configuration not stated), the GI50 in assay [6] was 1.67 µM (inactive); in assay [2], 1.34 µM (inactive); in assay [4], 1.07 µM (active); in assay [9] it was 2.54 µM (inactive).
Consider `CNC(=S)N/N=C(/C)CCC/C(C)=N/NC(=S)NC`, for which the values for the GI50 in assay [5] and in assay [8] were 3.71 µM (inactive) and > 100 µM (inactive), respectively.
Regarding `CSC(=S)N(C)c1nc(N(C)C)s[s+]1`, the GI50 in assay [6], in [1], in assay [2], in assay [3], in [7] and in assay [4] was > 100 µM (inactive) in each case.
As to `C=C1CC(OC)(C(OC)C(=O)N(C)[C@H]2OCO[C@H]3C2O[C@H](C[C@@H](COC)OC)C(C)(C)C3OC)O[C@H](C)[C@@H]1C` (some centres not stated), the GI50 in [1] was 11.2 µM (inactive); in [2] it was 7.91 µM (inactive); in assay [7] it was 12.2 µM (inactive); in [4], 13.3 µM (inactive).
Consider `C[n+]1ccc(Nc2ccc(NC(=O)c3ccc(Nc4cc[n+](C)c5ccc([N+](=O)[O-])cc45)cc3[N+](=O)[O-])cc2)cc1`, for which the GI50 in assay [1] was 1.05 µM (active); in [2], > 41.3 µM (inactive); in assay [3] it was 20 µM (inactive).
`CN1CCC(c2c(O)cc(O)c3c(=O)cc(-c4ccccc4Cl)oc23)C(O)C1` (configuration not stated): the GI50 in assay [6] was 0.0769 µM (active); in assay [2], 0.0492 µM (active); in assay [7], 0.118 µM (active); in [4] it was 0.217 µM (active).
For `COc1cc(O)c(Cc2ccccc2O)c(O)c1C(=O)CCc1ccccc1` [UVARETIN], the GI50 was 4.09 µM (inactive) in assay [1]; 3.21 µM (inactive) in [2]; 6.07 µM (inactive) in assay [3]; 7.64 µM (inactive) in assay [7]; 7.35 µM (inactive) in [4].
